Patent publication US20060069132A1, “Azolecarboxamide herbicides” (priority 2004, published 2006)

Experiments:
barnyardgrass [1] = assay: Test A pre-/postemergence herbicide test; format: in vivo, Echinochloa crus-galli
Summary of the method: (§1)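 Plants are held in greenhouse about ten days after treatment, then compared with untreated controls and scored 0 (no effect) to 100 (complete control). Preemergence dosing is a directed soil spray on sown sandy loam; postemergence dosing is spray to runoff at 2–10 cm height.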

large crabgrass [2] = assay: Test A pre-/postemergence herbicide test; format: in vivo, Digitaria sanguinalis
Summary of the method: as §1

giant foxtail [3] = assay: Test A pre-/postemergence herbicide test; format: in vivo, Setaria faberi
Summary of the method: as §1

morningglory [4] = assay: Test A pre-/postemergence herbicide test; format: in vivo, Ipomoea spp.
Summary of the method: as §1

redroot pigweed = assay: Test A pre-/postemergence herbicide test; format: in vivo, Amaranthus retroflexus
Summary of the method: as §1

velvetleaf [5] = assay: Test A pre-/postemergence herbicide test; format: in vivo, Abutilon theophrasti
Summary of the method: as §1

barnyardgrass [6] = assay: Test B pre-/postemergence herbicide test; format: in vivo, Echinochloa crus-galli; details: for Barnyardgrass plant response rating: postemergence
Summary of the method: (§2)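 Flooded paddy rice and barnyardgrass were treated at the 2-leaf stage; upland plantings received compound either on sown seed or on 1- to 4-leaf seedlings. All were kept 13–15 days in a greenhouse and scored visually, 0–100, relative to untreated plants.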

Surinam grass = assay: Test B pre-/postemergence herbicide test; format: in vivo, Urochloa decumbens; details: for Surinam Grass plant response rating: postemergence
Summary of the method: (§3)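 Plants compared with untreated controls 13–15 days post-treatment and given a visual 0–100 injury score. Applications: preemergence to seeds; postemergence at 1- to 4-leaf (2–18 cm); paddy species flooded, 2-leaf stage. Vehicle non-phytotoxic, surfactant included.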

cocklebur = assay: Test B pre-/postemergence herbicide test; format: in vivo, Xanthium strumarium
Summary of the method: as §2

corn = assay: Test B pre-/postemergence herbicide test; format: in vivo, Zea mays; details: for Corn plant response rating: postemergence
Summary of the method: as §3

large crabgrass [7] = assay: Test B pre-/postemergence herbicide test; format: in vivo, Digitaria sanguinalis; details: for Crabgrass, Large plant response rating: postemergence
Summary of the method: as §3

giant foxtail [8] = assay: Test B pre-/postemergence herbicide test; format: in vivo, Setaria faberi; details: for Foxtail, Giant plant response rating: postemergence
Summary of the method: as §3

lambsquarters = assay: Test B pre-/postemergence herbicide test; format: in vivo, Chenopodium album; details: for Lambsquarters plant response rating: postemergence
Summary of the method: as §3

morningglory [9] = assay: Test B pre-/postemergence herbicide test; format: in vivo, Ipomoea coccinea; details: for Morningglory plant response rating: postemergence
Summary of the method: as §2

pigweed = assay: Test B pre-/postemergence herbicide test; format: in vivo, Amaranthus retroflexus; details: for Pigweed plant response rating: postemergence
Summary of the method: as §3

velvetleaf [10] = assay: Test B pre-/postemergence herbicide test; format: in vivo, Abutilon theophrasti; details: 100 is complete control
Summary of the method: as §3

blackgrass = assay: Test B postemergence herbicide test; format: in vivo, Alopecurus myosuroides; details: postemergence
Summary of the method: (§4)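 After treating 2-leaf paddy plants or 2–18 cm postemergence plants (1 to 4 leaves) with formulated chemical, researchers kept them in a greenhouse for 13–15 days. Effects were judged visually versus controls: 0 indicates none, 100 total control.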

wheat = assay: Test B postemergence herbicide test; format: in vivo, Triticum aestivum; design: key to Wheat plant response rating: 0 = no effect, 100 = complete control; details: postemergence
Summary of the method: (§5)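 Formulated test chemicals went onto postemergence plants measuring 2 to 18 cm, at one to four leaves. For the paddy assay, species had reached two leaves. Scoring took place 13–15 days later by eye, relative to untreated plants, using 0 for no effect up to 100 for full control.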

wild oat = assay: Test B postemergence herbicide test; format: in vivo, Avena fatua; details: postemergence
Summary of the method: as §5

rice = assay: Test B flooded paddy test; format: in vivo, Oryza sativa; details: 1000 g ai/ha, scale 0 to 100 (0 no effect, 100 complete control)
Summary of the method: as §5

[11] = system: small flower umbrella sedge; assay: Test B flooded paddy test; format: in vivo, Cyperus difformis; details: 1000 g ai/ha, scale 0 to 100 (0 no effect, 100 complete control)
Summary of the method: as §4

ducksalad = assay: Test B flooded paddy test; format: in vivo, Heteranthera limosa; details: 1000 g ai/ha, scale 0 to 100 (0 no effect, 100 complete control)
Summary of the method: as §4

barnyardgrass [12] = assay: Test B flooded paddy test; format: in vivo, Echinochloa crus-galli; details: 1000 g ai/ha, scale 0 to 100 (0 no effect, 100 complete control)
Summary of the method: as §4

[13] = Postemergence, 500 g ai/ha, 0 to 100 scale, 0 no effect, 100 complete control
[14] = Postemergence, 2000 g ai/ha, 0 to 100 scale, 0 no effect, 100 complete control
[15] = Preemergence, 2000 g ai/ha, visual rating, 0 to 100 scale (0 no effect, 100 complete control)
[16] = preemergence, 500 g ai/ha, visual injury, 0 to 100 scale (0 no effect, 100 complete control)
[17] = 125 g ai/ha, 0 is no effect, 100 is complete control, preemergence
[18] = 125 g ai/ha, visual rating, scale 0 (no effect) to 100 (complete control)
[19] = 500 g ai/ha, visual rating, 0 = no effect, 100 = complete control, preemergence
[20] = 500 g ai/ha, scale 0 to 100, 0 is no effect, 100 is complete control

CCNC(=O)c1cccc(NC(=O)c2nn(C3CCCC3)nc2CC)c1 [Compound 356] was tested, and the “Barnyardgrass plant response rating” value (barnyardgrass [1]; [13]) was 25, the “Plant response rating, Barnyardgrass” value (barnyardgrass [1]; [14]) was 40 and the “Barnyardgrass plant response rating” value (barnyardgrass [1]; [15]) was 45. The “Barnyardgrass plant response rating” value (barnyardgrass [1]; [16]) was 5, the “Crabgrass, Large plant response rating” value (large crabgrass [2]; [13]) was 10 and the “Plant response rating, Crabgrass, Large” value (large crabgrass [2]; [14]) was 15. For the same compound, the “Crabgrass, Large plant response rating” value (large crabgrass [2]; [15]) was 20, the “Crabgrass, Large plant response rating” value (large crabgrass [2]; [16]) was 10 and the “Foxtail, Giant plant response rating” value (giant foxtail [3]; [13]) was 10. The “Plant response rating, Foxtail, Giant” value (giant foxtail [3]; [14]) was 10, the “Foxtail, Giant plant response rating” value (giant foxtail [3]; [15]) was 45 and the “Foxtail, Giant plant response rating” value (giant foxtail [3]; [16]) was 20. The “Morningglory plant response rating” value (morningglory [4]; [13]) was 10, the “Plant response rating, Morningglory” value (morningglory [4]; [14]) was 20 and the “Morningglory plant response rating” value (morningglory [4]; [15]) was 15. The “Morningglory plant response rating” value (morningglory [4]; [16]) was 5, the “Pigweed plant response rating” value (redroot pigweed; [13]) was 65 and the “Plant response rating, Pigweed” value (redroot pigweed; [14]) was 70. The “Pigweed plant response rating” value (redroot pigweed; [15]) was 80, the “Pigweed plant response rating” value (redroot pigweed; [16]) was 25 and the “Velvetleaf plant response rating” value (velvetleaf [5]; [13]) was 10. The “Plant response rating, Velvetleaf” value (velvetleaf [5]; [14]) was 10, the “Velvetleaf plant response rating” value (velvetleaf [5]; [15]) was 20 and the “Velvetleaf plant response rating” value (velvetleaf [5]; [16]) was 0. The “Plant response rating (0 to 100 scale), Barnyardgrass” value (barnyardgrass [6]; [17]) was 60, the “Barnyardgrass plant response rating” value (barnyardgrass [6]; [18]) was 0 and the “Plant response rating, Barnyardgrass” value (barnyardgrass [6]; [19]) was 80. For the same compound, the “Barnyardgrass plant response rating” value (barnyardgrass [6]; [20]) was 0, the “Plant response rating (0 to 100 scale), Surinam Grass” value (Surinam grass; [17]) was 10 and the “Surinam Grass plant response rating” value (Surinam grass; [18]) was 10. The “Plant response rating, Surinam Grass” value (Surinam grass; [19]) was 60, the “Surinam Grass plant response rating” value (Surinam grass; [20]) was 20 and the “Plant response rating (0 to 100 scale), Cocklebur” value (cocklebur; [17]) was 0. The “Plant response rating, Cocklebur” value (cocklebur; [19]) was 20, the “Cocklebur plant response rating” value (cocklebur; postemergence, 500 g ai/ha, scale 0 to 100, 0 is no effect, 100 is complete control) was 0 and the “Plant response rating (0 to 100 scale), Corn” value (corn; [17]) was 10. The “Corn plant response rating” value (corn; [18]) was 0, the “Plant response rating, Corn” value (corn; [19]) was 50 and the “Corn plant response rating” value (corn; [20]) was 0. The “Plant response rating (0 to 100 scale), Crabgrass, Large” value (large crabgrass [7]; [17]) was 40, the “Crabgrass, Large plant response rating” value (large crabgrass [7]; [18]) was 10 and the “Plant response rating, Crabgrass, Large” value (large crabgrass [7]; [19]) was 90. For the same compound, the “Crabgrass, Large plant response rating” value (large crabgrass [7]; [20]) was 30, the “Plant response rating (0 to 100 scale), Foxtail, Giant” value (giant foxtail [8]; [17]) was 10 and the “Foxtail, Giant plant response rating” value (giant foxtail [8]; [18]) was 30. The “Plant response rating, Foxtail, Giant” value (giant foxtail [8]; [19]) was 80, the “Foxtail, Giant plant response rating” value (giant foxtail [8]; [20]) was 30 and the “Plant response rating (0 to 100 scale), Lambsquarters” value (lambsquarters; [17]) was 40. For the same compound, the “Lambsquarters plant response rating” value (lambsquarters; [18]) was 10, the “Plant response rating, Lambsquarters” value (lambsquarters; [19]) was 100 and the “Lambsquarters plant response rating” value (lambsquarters; [20]) was 50. The “Plant response rating (0 to 100 scale), Morningglory” value (morningglory [9]; [17]) was 0, the “Morningglory plant response rating” value (morningglory [9]; [18]) was 0 and the “Plant response rating, Morningglory” value (morningglory [9]; [19]) was 10. For the same compound, the “Morningglory plant response rating” value (morningglory [9]; [20]) was 10, the “Plant response rating (0 to 100 scale), Pigweed” value (pigweed; [17]) was 70 and the “Pigweed plant response rating” value (pigweed; [18]) was 30. The “Plant response rating, Pigweed” value (pigweed; [19]) was 100, the “Pigweed plant response rating” value (pigweed; [20]) was 70 and the “Plant response rating (0 to 100 scale), Velvetleaf” value (velvetleaf [10]; 125 g ai/ha, 0 is no effect, preemergence) was 0. The “Velvetleaf plant response rating” value (velvetleaf [10]; postemergence, 500 g ai/ha, scale 0 to 100, 0 is no effect) was 0, the “Blackgrass plant response rating” value (blackgrass; [18]) was 0 and the “Blackgrass plant response rating” value (blackgrass; [20]) was 10. The “Wheat plant response rating” value (wheat; [18]) was 0, the “Wheat plant response rating” value (wheat; [20]) was 10 and the “Oat, Wild plant response rating” value (wild oat; [18]) was 0. For the same compound, the “Oat, Wild plant response rating” value (wild oat; [20]) was 20, the “Rice plant response rating” value (rice) was 50 and the “Sedge, Umbrella plant response rating” value [11] was 70. For the same compound, the “Ducksalad plant response rating” value (ducksalad) was 60 and the “Barnyardgrass plant response rating” value (barnyardgrass [12]) was 50.
